# Results as given in patent publication US20040171687A1 (priority 2002, published 2004).
# System: human skin
# Assay: Human skin contact with acidic solution
# Conditions: solution with a pH of less than 0.5
structure (smiles),measurement,value
O=S(=O)(O)O [sulfuric acid],irritation or injury of the hand put into the solution,an irritation would occur within a relatively short span of time
